Source: patent US20130259830A1, “CRTH2 MODULATORS” (Ironwood Pharmaceuticals, Inc., priority 2010, published 2013)

Tests used:
CRTH2 [1] = molecular target: T1, CRTH2 (Homo sapiens, UniProt Q9Y5Y4); experiment: DPBS CD11b antagonist assay (CD11b expression in eosinophils challenged with 15R-Methyl-PGD2); format: cell-based; settings: polymorphonuclear cells in PBS with CaCl2/MgCl2; agonist 15R-Methyl-PGD2 10 nM; eosinophils gated by flow cytometry
T1 construct: endogenous in cells; host or cells: eosinophils in human whole blood
T1 sequence (Q9Y5Y4 1-395): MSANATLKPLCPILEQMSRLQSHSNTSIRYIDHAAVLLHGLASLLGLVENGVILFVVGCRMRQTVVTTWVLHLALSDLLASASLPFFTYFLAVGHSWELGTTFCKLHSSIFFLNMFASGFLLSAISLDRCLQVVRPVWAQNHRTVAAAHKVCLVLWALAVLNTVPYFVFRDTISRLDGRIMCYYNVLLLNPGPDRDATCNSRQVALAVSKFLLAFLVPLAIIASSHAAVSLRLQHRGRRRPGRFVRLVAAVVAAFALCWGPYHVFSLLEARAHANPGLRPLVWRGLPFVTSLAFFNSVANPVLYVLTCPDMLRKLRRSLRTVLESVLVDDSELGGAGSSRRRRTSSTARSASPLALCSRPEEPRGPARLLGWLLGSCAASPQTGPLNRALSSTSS
Procedure: DPBS CD111b Antagonist Assay.
The potential CRTH2 antagonist, activity of certain compounds was tested using a CD11b expression assay using essentially the method described by Monneret et al. (J Pharmacol Exp Ther 304:349-55, 2003). Briefly, polymorphonuclear cells (0.5 ml; 10^6/ml cells) in PBS containing 0.9 mM CaCl2 and 0.5 mM MgCl2) were preincubated with various concentrations of test compounds at room temperature for 10 minutes before they were challenged with the agonist 15R-Methyl-PGD2 (10 nM). The incubations were terminated by the addition of ice-cold FACSFlow (BD Biosciences; Cat#342003) and centrifugation (400 g for 5 minutes at 4° C.). The cells were then incubated for 30 minutes at 4° C. with a mixture of PE-labeled mouse anti-human VLA-4 (5 μl; BD Biosciences) and FITC-labeled mouse anti-human CD11b (10 μl; Beckman Coulter). The cells were then incubated with Optilyse C (0.25 ml; Beckman Coulter) for 15 minutes, centrifuged, and then fixed in PBS (0.4 ml; calcium and magnesium free) containing 1% formaldehyde. The distribution of fluorescence intensities among 60,000 cells was measured by flow cytometry. Eosinophils were gated out on the basis of their granularity (high side scatter) and labeling with VLA-4 (PE fluorescence). CD11b was then measured in the eosinophil region on the basis of fluorescence due to FITC. All data were corrected for the value obtained for the corresponding isotope control antibody.

CRTH2 [2] = molecular target: T1, CRTH2; experiment: Human whole blood CD11b antagonist assay (CD11b expression in eosinophils challenged with 15-R-methyl-PGD2); format: cell-based; settings: 37° C. 10 minutes preincubation, agonist 15R-Methyl-PGD2 10 nM, eosinophils gated by flow cytometry
Procedure: Human Whole Blood […] Antagonist Assay (Modified from Nicholson, et al. Pulmonary Pharmacology and Therapeutics: 20 (2007); 52-59).
The potential CRTH2 antagonist activity of certain compounds was tested in human whole blood using an assay that tests the ability of the compounds to block the CD11b expression in eosinophils by 15-R-methyl-PGD2. A CRTH2 antagonist should block CD11b expression by subsequently added 15-Methyl-PGD2. Human whole blood (200 μL) was incubated at 37° C. for 10 minutes in the presence of various concentrations of test compounds before being challenged with the agonist 1-5R-Methyl-PGD2 (10 nM). Reactions were terminated by the addition of ice-cold PBS+0.5% BSA+2 mM EDTA (1 mL) and centrifugation (300×g for 5 minutes at 4° C.) Cells were then incubated at 4° C. for 10 min in the presence of human IgG. Cells were then incubated for 30-45 min with a mixture of PE-Cy5-labeled mouse anti-human CD16 (10 ul; BD Biosciences) and FITC-labeled mouse anti-human CD11b (10 μL; Beckman Coulter.) After rinsing (1 mL ice-cold PBS+0.5% BSA+2 mM EDTA), red blood cells were lysed by the addition of 1 mL ice-cold H2O to the cell pellet for 30 sec-1 min immediately followed by the addition of 3.5% NaCl (300 μL.) Cells were then rinsed (2×−1 ml ice cold PBS+0.5% BSA+2m MEDTA) and fixed in PBS containing 1% formaldehyde. The distribution of fluorescence intensities was measured by flow cytometry. Eosinophils were gated out on the basis of their granularity (high side scatter) and absence of CD-16. CD11b was then measured on this eosinophil population on the basis of fluorescence due to FITC.

Row | Compound | IC50 (CRTH2 [1]) [nM] | IC50 (CRTH2 [2]) [nM]
1 | Cc1ccc(S(=O)(=O)c2ncccc2Cc2c3c(n(CC(=O)O)c2C)CC(C)(C)CC3=O)cc1 [Compound I-20, 2-(2,6,6-Trimethyl-4-oxo-3-((2-tosylpyridin-3-yl)methyl)-4,5,6,7-tetrahydro-1H-indol-1-yl)acetic acid] | < 1 | 5 to 20
2 | COc1ccc(S(=O)(=O)c2ncccc2Cc2c3c(n(CC(=O)O)c2C)CC(C)(C)CC3=O)cc1F [Compound I-21, 2-(3-((2-(3-Fluoro-4-methoxyphenylsulfonyl)pyridin-3-yl)methyl)-2,6,6-trimethyl-4-oxo-4,5,6,7-tetrahydro-1H-indol-1-yl)acetic acid] | < 1 | 20 to 100
3 | Cc1c(Cc2ccccc2NS(=O)(=O)c2ccc(F)cc2F)c2c(n1CC(=O)O)CC(C)(C)CC2=O [Compound I-22, 2-(3-(2-(2,4-Difluorophenylsulfonamido)benzyl)-2,6,6-trimethyl-4-oxo-4,5,6,7-tetrahydro-1H-indol-1-yl)acetic acid] | < 1 | 20 to 100
4 | Cc1ccc(S(=O)(=O)Nc2ccccc2Cc2c3c(n(CC(=O)O)c2C)CC(C)(C)CC3=O)cc1 [Compound I-23, 2-(2,6,6-Trimethyl-3-(2-(4-methylphenylsulfonamido)benzyl)-4-oxo-4,5,6,7-tetrahydro-1H-indol-1-yl)acetic acid] | < 1 | 1 to 5
5 | Cc1c(Cc2ccccc2NS(=O)(=O)c2ccccc2)c2c(n1CC(=O)O)CC(C)(C)CC2=O [Compound I-24, 2-(2,6,6-Trimethyl-4-oxo-3-(2-(phenylsulfonamido)benzyl)-4,5,6,7-tetrahydro-1H-indol-1-yl)acetic acid] | < 1 | 5 to 20
6 | Cc1c(Cc2ccccc2NS(=O)(=O)c2ccc(C(F)(F)F)cc2)c2c(n1CC(=O)O)CC(C)(C)CC2=O [Compound I-25, 2-(2,6,6-Trimethyl-4-oxo-3-(2-(4-(trifluoromethyl)phenylsulfonamido)benzyl)-4,5,6,7-tetrahydro-1H-indol-1-yl)acetic acid] | < 1 | 20 to 100
7 | Cc1c(Cc2ccc(S(=O)(=O)c3ccccc3)s2)c2c(n1CC(=O)O)CC(C)(C)CC2=O [Compound I-26, 2-(2,6,6-Trimethyl-4-oxo-3-((5-(phenylsulfonyl)thiophen-2-yl)methyl)-4,5,6,7-tetrahydro-1H-indol-1-yl)acetic acid] | 100 to 500 | > 3000
8 | Cc1c(Cc2ccccc2NS(=O)(=O)c2ccc(C(C)C)cc2)c2c(n1CC(=O)O)CC(C)(C)CC2=O [Compound I-27, 2-(3-(2-(4-Isopropylphenylsulfonamido)benzyl)-2,6,6-trimethyl-4-oxo-4,5,6,7-tetrahydro-1H-indol-1-yl)acetic acid] | < 1 | 20 to 100
9 | Cc1c(Cc2ccccc2S(=O)(=O)N2CCCC2)c2c(n1CC(=O)O)CC(C)(C)C/C2=N\OC(C)(C)C [Compound I-30, (E)-2-(4-(tert-Butoxyimino)-2,6,6-trimethyl-3-(2-(pyrrolidin-1-ylsulfonyl)benzyl)-4,5,6,7-tetrahydro-1H-indol-1-yl)acetic acid] | 1 to 5 | 100 to 500
10 | Cc1c(Cc2ccccc2S(=O)(=O)N2CCCC2)c2c(n1CC(=O)O)CC(C)(C)C/C2=N\OCc1ccccc1 [Compound I-31, (E)-2-(4-(Benzyloxyimino)-2,6,6-trimethyl-3-(2-(pyrrolidin-1-ylsulfonyl)benzyl)-4,5,6,7-tetrahydro-1H-indol-1-yl)acetic acid] | 1 to 5 | 100 to 500
11 | Cc1c(Cc2cccnc2S(C)(=O)=O)c2c(n1CC(=O)O)CC(C)(C)CC2=O [Compound I-32, 2-(2,6,6-Trimethyl-3-((2-(methylsulfonyl)pyridin-3-yl)methyl)-4-oxo-4,5,6,7-tetrahydro-1H-indol-1-yl)acetic acid] | 500 to 3000 | 500 to 3000
12 | Cc1ccc(S(=O)(=O)N(C)c2ccccc2Cc2c3c(n(CC(=O)O)c2C)CC(C)(C)CC3=O)cc1 [Compound I-33, 2-(3-(2-(N,4-dimethylphenylsulfonamido)benzyl)-2,6,6-trimethyl-4-oxo-4,5,6,7-tetrahydro-1H-indol-1-yl)acetic acid] | 1 to 5 | 100 to 500
13 | Cc1c(Cc2ccccc2N(C)S(=O)(=O)c2ccc(C(C)C)cc2)c2c(n1CC(=O)O)CC(C)(C)CC2=O [Compound I-34, 2-(3-(2-(4-Isopropyl-N-methylphenylsulfonamido)benzyl)-2,6,6-trimethyl-4-oxo-4,5,6,7-tetrahydro-1H-indol-1-yl)acetic acid] | 5 to 20 | 500 to 3000
14 | Cc1c(Cc2ccccc2N(C)S(=O)(=O)c2ccccc2)c2c(n1CC(=O)O)CC(C)(C)CC2=O [Compound I-35, 2-(2,6,6-Trimethyl-3-(2-(N-methylphenylsulfonamido)benzyl)-4-oxo-4,5,6,7-tetrahydro-1H-indol-1-yl)acetic acid] | 1 to 5 | 20 to 100
15 | Cc1c(Cc2cc(OCC(F)(F)F)ccc2NS(=O)(=O)c2ccccc2)c2c(n1CC(=O)O)CC(C)(C)CC2=O [Compound I-36, 2-(2,6,6-Trimethyl-4-oxo-3-(2-(phenylsulfonamido)-5-(2,2,2-trifluoroethoxy)benzyl)-4,5,6,7-tetrahydro-1H-indol-1-yl)acetic acid] | 1 to 5 | 20 to 100
16 | Cc1c(Cc2cc3ccccc3n2S(=O)(=O)N2CCOCC2)c2c(n1CC(=O)O)CC(C)(C)CC2=O [Compound I-37] | < 1 | 20 to 100
17 | CCN(c1ccccc1Cc1c2c(n(CC(=O)O)c1C)CC(C)(C)CC2=O)S(=O)(=O)c1ccc(C)cc1 [Compound I-38, 2-(3-(2-(N-Ethyl-4-methylphenylsulfonamido)benzyl)-2,6,6-trimethyl-4-oxo-4,5,6,7-tetrahydro-1H-indol-1-yl)acetic acid] | 1 to 5 | 500 to 3000
18 | Cc1c(Cc2ccccc2S(=O)(=O)N2CCCC2)c2c(n1CC(=O)O)CCNC2=O [Compound I-39, 2-(2-Methyl-4-oxo-3-(2-(pyrrolidin-1-ylsulfonyl)benzyl)-4,5,6,7-tetrahydro-1H-pyrrolo[3,2-c]pyridin-1-yl)acetic acid] | < 1 | 5 to 20
19 | Cc1c(Cc2ccccc2NS(=O)(=O)N2CCCC2)c2c(n1CC(=O)O)CC(C)(C)CC2=O [Compound I-40, 2-(2,6,6-Trimethyl-4-oxo-3-(2-(pyrrolidine-1-sulfonamido)benzyl)-4,5,6,7-tetrahydro-1H-indol-1-yl)acetic acid] | 1 to 5 | 100 to 500
20 | Cc1c(Cc2sccc2S(=O)(=O)c2ccccc2)c2c(n1CC(=O)O)CC(C)(C)CC2=O [Compound I-42] | < 1 | < 1
21 | Cc1c(Cc2ccccc2N(C)S(=O)(=O)N2CCCC2)c2c(n1CC(=O)O)CC(C)(C)CC2=O [Compound I-43, 2-(2,6,6-Trimethyl-3-(2-(N-methylpyrrolidine-1-sulfonamido)benzyl)-4-oxo-4,5,6,7-tetrahydro-1H-indol-1-yl)acetic acid] | 5 to 20 | 20 to 100
22 | Cc1c(Cc2ccccc2NS(=O)(=O)N2CCCC2)c2c(n1CC(=O)O)CC(C)(C)CC2=O [Compound I-44] | 1 to 5 | 100 to 500
